In brackets after ≈: the same amount, converted by molar mass.
Key:
Escherichia coli [1] = experiment: Antimicrobial activity against Escherichia coli JW55031 harboring TolC mutant; type: functional
Candida albicans = experiment: Antimicrobial activity against Candida albicans ATCC 64124; type: functional
Neisseria gonorrhoeae = experiment: Antimicrobial activity against Neisseria gonorrhoeae 194; type: functional
Escherichia coli [2] = experiment: Antimicrobial activity against Escherichia coli BW25113; type: functional
Staphylococcus aureus = experiment: Antimicrobial activity against methicillin-resistant Staphylococcus aureus USA300; type: functional
Clostridioides difficile [3] = experiment: Antimicrobial activity against Clostridioides difficile ATCC BAA-1870; type: functional
Lactobacillus crispatus = experiment: Antibacterial activity against Lactobacillus crispatus HM-420; type: functional
Bacteroides fragilis [4] = experiment: Antibacterial activity against Bacteroides fragilis HM-714; type: functional
Bifidobacterium breve [5] = experiment: Antibacterial activity against Bifidobacterium breve HM-1120; type: functional
Clostridioides difficile [6] = experiment: Antibacterial activity against Clostridioides difficile P7; type: functional
Lactobacillus gasseri = experiment: Antibacterial activity against Lactobacillus gasseri HM-400; type: functional
Bifidobacterium breve [7] = experiment: Antibacterial activity against Bifidobacterium breve HM-411; type: functional
Clostridioides difficile [8] = experiment: Antibacterial activity against Clostridioides difficile I 13; type: functional
Clostridioides difficile [9] = experiment: Antibacterial activity against Clostridioides difficile I 11; type: functional
Lacticaseibacillus casei = experiment: Antibacterial activity against Lactobacillus casei ATCC 334; type: functional
Clostridioides difficile [10] = experiment: Antibacterial activity against Clostridioides difficile ATCC 43598; type: functional
[11] = Antibacterial activity against Bifidobacterium longum subsp. Longum HM-845; type: functional
Phocaeicola dorei = experiment: Antibacterial activity against Bacteroides dorei HM-719; type: functional
Bacteroides fragilis [12] = experiment: Antibacterial activity against Bacteroides fragilis HM-709; type: functional
HRT-18 cell line = experiment: Cytotoxicity against human HRT-18 cell line assessed as cell viability upto 64 ug/ml; type: toxicity, cell-based; conditions: dose < 64 µg/ml
[13] = Cytotoxicity against African green monkey Vero cells assessed as cell viability at 0.5 to 64 ug/ml relative to control; type: toxicity, cell-based; conditions: chlorocebus sabaeus, at 0.5 to 64 µg/mL, dose 0.5-64 µg/ml, read-out: Activity

Row | Compound | MIC (Escherichia coli [1]) | MIC (Candida albicans) | MIC (Neisseria gonorrhoeae) | MIC (Escherichia coli [2]) | MIC (Staphylococcus aureus) | MIC (Clostridioides difficile [3]) | also measured
1 | Cc1nc(-c2ccc3ccccc3c2)sc1-c1ccnc(NC(CO)CO)n1 | > 64 µg/mL | > 64 µg/mL | 64 µg/mL (≈ 163 µM) | > 64 µg/mL | > 64 µg/mL | 64 µg/mL (≈ 163 µM) | –
2 | Cc1nc(-c2ccc3ccccc3c2)sc1-c1ccnc(N2CCC[C@H]2C(N)=O)n1 | > 64 µg/mL | > 64 µg/mL | > 64 µg/mL | > 64 µg/mL | > 64 µg/mL | 64 µg/mL (≈ 154 µM) | –
3 | Cc1nc(-c2ccc3ccccc3c2)sc1-c1ccnc(NCCCO)n1 | > 64 µg/mL | > 64 µg/mL | > 64 µg/mL | > 64 µg/mL | > 64 µg/mL | 64 µg/mL (≈ 170 µM) | –
4 | CN[C@H](CC(C)C)C(=O)N[C@H]1C(=O)N[C@@H](CC(N)=O)C(=O)N[C@H]2C(=O)N[C@H]3C(=O)N[C@H](C(=O)N[C@H](C(=O)O)c4cc(O)cc(O)c4-c4cc3ccc4O)[C@H](O)c3ccc(c(Cl)c3)Oc3cc2cc(c3O[C@@H]2O[C@H](CO)[C@@H](O)[C@H](O)[C@H]2O[C@H]2C[C@](C)(N)[C@H](O)[C@H](C)O2)Oc2ccc(cc2Cl)[C@H]1O [VANCOMYCIN] | – | – | – | – | – | 1 µg/mL (≈ 0.69 µM) | MIC (Lactobacillus crispatus): 0.5 µg/mL (≈ 0.345 µM); MIC (Bacteroides fragilis [4]): 8 µg/mL (≈ 5.52 µM); MIC (Bifidobacterium breve [5]): 0.25 µg/mL (≈ 0.173 µM); MIC (Clostridioides difficile [6]): 0.5 µg/mL (≈ 0.345 µM); MIC (Lactobacillus gasseri): > 8 µg/mL; MIC (Bifidobacterium breve [7]): 0.25 µg/mL (≈ 0.173 µM); MIC (Clostridioides difficile [8]): 0.5 µg/mL (≈ 0.345 µM); MIC (Clostridioides difficile [9]): 0.5 µg/mL (≈ 0.345 µM); MIC (Lacticaseibacillus casei): > 8 µg/mL; MIC (Clostridioides difficile [10]): 0.5 µg/mL (≈ 0.345 µM); MIC [11]: 0.125 µg/mL (≈ 0.0863 µM); MIC (Phocaeicola dorei): 8 µg/mL (≈ 5.52 µM); MIC (Bacteroides fragilis [12]): 8 µg/mL (≈ 5.52 µM)
5 | Cc1ncc([N+](=O)[O-])n1CCO [METRONIDAZOLE] | – | – | – | – | – | 0.25 µg/mL (≈ 1.46 µM) | MIC (Lactobacillus crispatus): > 8 µg/mL; MIC (Bacteroides fragilis [4]): 1 µg/mL (≈ 5.84 µM); MIC (Bifidobacterium breve [5]): > 8 µg/mL; MIC (Clostridioides difficile [6]): 0.25 µg/mL (≈ 1.46 µM); MIC (Lactobacillus gasseri): > 8 µg/mL; MIC (Bifidobacterium breve [7]): > 8 µg/mL; MIC (Clostridioides difficile [8]): 0.25 µg/mL (≈ 1.46 µM); MIC (Clostridioides difficile [9]): 0.5 µg/mL (≈ 2.92 µM); MIC (Lacticaseibacillus casei): > 8 µg/mL; MIC (Clostridioides difficile [10]): 0.25 µg/mL (≈ 1.46 µM); MIC [11]: 0.5 µg/mL (≈ 2.92 µM); MIC (Phocaeicola dorei): 0.25 µg/mL (≈ 1.46 µM); MIC (Bacteroides fragilis [12]): 1 µg/mL (≈ 5.84 µM)
6 | Cc1nc(-c2ccc3ccccc3c2)sc1-c1ccnc(N2CCC[C@@H]2C(N)=O)n1 | 64 µg/mL (≈ 154 µM) | > 64 µg/mL | > 64 µg/mL | > 64 µg/mL | > 64 µg/mL | 64 µg/mL (≈ 154 µM) | –
7 | Cc1nc(-c2ccc3ccccc3c2)sc1-c1ccnc(N2CC[C@@H](N(C)C)C2)n1 | > 64 µg/mL | 64 µg/mL (≈ 154 µM) | > 64 µg/mL | 64 µg/mL (≈ 154 µM) | 32 µg/mL (≈ 77 µM) | 64 µg/mL (≈ 154 µM) | –
8 | Cc1nc(-c2ccc3ccccc3c2)sc1-c1ccnc(NC[C@H](O)CO)n1 | > 64 µg/mL | > 64 µg/mL | > 64 µg/mL | > 64 µg/mL | > 64 µg/mL | 64 µg/mL (≈ 163 µM) | –
9 | Cc1nc(-c2ccc3ccccc3c2)sc1-c1ccnc(N[C@@H]2CCCC[C@H]2N)n1 (relative stereo) | 8 µg/mL (≈ 19.3 µM) | 8 µg/mL (≈ 19.3 µM) | 64 µg/mL (≈ 154 µM) | > 64 µg/mL | 4 µg/mL (≈ 9.63 µM) | 16 µg/mL (≈ 38.5 µM) | –
10 | Cc1nc(-c2ccc3ccccc3c2)sc1-c1ccnc(N[C@H]2CC[C@H](N)CC2)n1 | > 64 µg/mL | 16 µg/mL (≈ 38.5 µM) | > 64 µg/mL | > 64 µg/mL | 8 µg/mL (≈ 19.3 µM) | 32 µg/mL (≈ 77 µM) | –
11 | Cc1nc(-c2ccc3ccccc3c2)sc1-c1ccnc(NC[C@@H](O)CO)n1 | > 64 µg/mL | > 64 µg/mL | > 64 µg/mL | > 64 µg/mL | > 64 µg/mL | 64 µg/mL (≈ 163 µM) | –
12 | Cc1nc(-c2ccc3ccccc3c2)sc1-c1ccnc(-c2ccncc2)n1 | > 64 µg/mL | > 64 µg/mL | > 64 µg/mL | > 64 µg/mL | > 64 µg/mL | > 64 µg/mL | –
13 | Cc1nc(-c2ccc3ccccc3c2)sc1-c1ccnc(N2CCC(N)C2)n1 (stereo unspecified) | > 64 µg/mL | 8 µg/mL (≈ 20.6 µM) | > 64 µg/mL | > 64 µg/mL | 8 µg/mL (≈ 20.6 µM) | 16 µg/mL (≈ 41.3 µM) | –
14 | Cc1nc(-c2ccc3ccccc3c2)sc1-c1ccnc(NCCN(C)C)n1 | 16 µg/mL (≈ 41.1 µM) | 16 µg/mL (≈ 41.1 µM) | > 64 µg/mL | > 64 µg/mL | 16 µg/mL (≈ 41.1 µM) | 16 µg/mL (≈ 41.1 µM) | –
15 | Cc1nc(-c2ccc3ccccc3c2)sc1-c1ccnc(N[C@@H]2CCCC[C@@H]2N)n1 (relative stereo) | 8 µg/mL (≈ 19.3 µM) | 8 µg/mL (≈ 19.3 µM) | 32 µg/mL (≈ 77 µM) | > 64 µg/mL | 4 µg/mL (≈ 9.63 µM) | 8 µg/mL (≈ 19.3 µM) | –
16 | Cc1nc(-c2ccc3ccccc3c2)sc1-c1ccnc(N2CC[C@H](N(C)C)C2)n1 | > 64 µg/mL | 32 µg/mL (≈ 77 µM) | > 64 µg/mL | > 64 µg/mL | 32 µg/mL (≈ 77 µM) | 32 µg/mL (≈ 77 µM) | –
17 | Cc1nc(-c2ccc3ccccc3c2)sc1-c1ccnc(-c2cccnc2)n1 | > 64 µg/mL | > 64 µg/mL | > 64 µg/mL | > 64 µg/mL | > 64 µg/mL | > 64 µg/mL | –
18 | Cc1nc(-c2ccc3ccccc3c2)sc1-c1ccnc(N2CCC[C@H]2CO)n1 | > 64 µg/mL | > 64 µg/mL | > 64 µg/mL | > 64 µg/mL | > 64 µg/mL | 64 µg/mL (≈ 159 µM) | –
19 | Cc1nc(-c2ccc3ccccc3c2)sc1-c1ccnc(N2CCCCC2CN)n1 (stereo unspecified) | > 64 µg/mL | 16 µg/mL (≈ 38.5 µM) | > 64 µg/mL | > 64 µg/mL | > 64 µg/mL | 64 µg/mL (≈ 154 µM) | –
20 | Cc1nc(-c2ccc3ccccc3c2)sc1-c1ccnc(NCC(=N)N)n1 | > 64 µg/mL | > 64 µg/mL | > 64 µg/mL | > 64 µg/mL | > 64 µg/mL | 32 µg/mL (≈ 85.5 µM) | –
21 | Cc1nc(-c2ccc3ccccc3c2)sc1-c1ccnc(N2CCC[C@@H]2CO)n1 | > 64 µg/mL | > 64 µg/mL | 32 µg/mL (≈ 79.5 µM) | > 64 µg/mL | > 64 µg/mL | 64 µg/mL (≈ 159 µM) | –
22 | Cc1nc(-c2ccc3ccccc3c2)sc1-c1ccnc(NCCCN)n1 | > 64 µg/mL | > 64 µg/mL | > 64 µg/mL | > 64 µg/mL | > 64 µg/mL | 64 µg/mL (≈ 170 µM) | –
23 | Cc1nc(-c2ccc3ccccc3c2)sc1-c1ccnc(-c2ccccn2)n1 | > 64 µg/mL | > 64 µg/mL | > 64 µg/mL | > 64 µg/mL | > 64 µg/mL | 0.03 µg/mL (≈ 0.0788 µM) | MIC (Lactobacillus crispatus): > 64 µg/mL; MIC (Bacteroides fragilis [4]): > 64 µg/mL; MIC (Bifidobacterium breve [5]): > 64 µg/mL; Activity (HRT-18 cell line): Non-Toxic; MIC (Clostridioides difficile [6]): 0.125 µg/mL (≈ 0.329 µM); MIC (Lactobacillus gasseri): > 64 µg/mL; viability [13]: 100%; MIC (Bifidobacterium breve [7]): > 64 µg/mL; MIC (Clostridioides difficile [8]): 0.06 µg/mL (≈ 0.158 µM); MIC (Clostridioides difficile [9]): 0.03 µg/mL (≈ 0.0788 µM); MIC (Lacticaseibacillus casei): > 64 µg/mL; MIC (Clostridioides difficile [10]): 0.125 µg/mL (≈ 0.329 µM); MIC [11]: > 64 µg/mL; MIC (Phocaeicola dorei): > 64 µg/mL; MIC (Bacteroides fragilis [12]): > 64 µg/mL
24 | Cc1nc(-c2ccc3ccccc3c2)sc1-c1ccnc(NCC(O)CO)n1 (racemic) | > 64 µg/mL | > 64 µg/mL | 64 µg/mL (≈ 163 µM) | > 64 µg/mL | > 64 µg/mL | 8 µg/mL (≈ 20.4 µM) | –
25 | Cc1nc(-c2ccc3ccccc3c2)sc1-c1ccnc(NCCO)n1 | > 64 µg/mL | 1 µg/mL (≈ 2.76 µM) | > 64 µg/mL | > 64 µg/mL | > 64 µg/mL | 64 µg/mL (≈ 177 µM) | –
